The values below come from US11180482B2, “Anilinopyrimidines as haematopoietic progenitor kinase 1 (HPK1) inhibitors” (Ariad Pharmaceuticals, Inc., priority 2016, dated 2021).

Wild Type HPK1 (MAP4K1) Kinase, sequence (Q92918 whole entry, species assumed): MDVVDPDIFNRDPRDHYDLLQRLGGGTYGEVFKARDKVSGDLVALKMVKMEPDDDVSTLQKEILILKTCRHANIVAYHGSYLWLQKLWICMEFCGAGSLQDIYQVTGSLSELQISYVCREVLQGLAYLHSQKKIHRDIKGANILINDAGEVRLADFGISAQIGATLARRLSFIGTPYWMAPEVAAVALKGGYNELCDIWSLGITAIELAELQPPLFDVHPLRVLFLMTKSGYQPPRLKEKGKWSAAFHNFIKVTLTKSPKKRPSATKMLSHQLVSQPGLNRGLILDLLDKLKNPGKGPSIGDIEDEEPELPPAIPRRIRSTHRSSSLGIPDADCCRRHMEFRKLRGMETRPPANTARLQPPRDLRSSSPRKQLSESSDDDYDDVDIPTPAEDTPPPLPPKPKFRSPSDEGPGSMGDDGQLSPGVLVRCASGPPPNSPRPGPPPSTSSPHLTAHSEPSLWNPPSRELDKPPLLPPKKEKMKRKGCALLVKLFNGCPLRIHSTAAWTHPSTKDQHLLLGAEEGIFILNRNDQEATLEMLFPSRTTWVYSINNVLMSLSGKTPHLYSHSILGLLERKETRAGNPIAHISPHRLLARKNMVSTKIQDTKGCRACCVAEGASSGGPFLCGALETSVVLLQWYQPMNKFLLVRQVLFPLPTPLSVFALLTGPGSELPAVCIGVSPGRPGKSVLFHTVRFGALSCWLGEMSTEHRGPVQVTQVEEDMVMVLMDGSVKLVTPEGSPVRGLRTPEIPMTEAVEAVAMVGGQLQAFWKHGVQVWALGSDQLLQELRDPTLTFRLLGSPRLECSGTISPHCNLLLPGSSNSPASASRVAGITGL

The assay concerns the target Wild Type HPK1 (MAP4K1) Kinase (Homo sapiens (Human), UniProt Q92918). The assay is described as follows: HPK1 Assay (Caliper EZ reader, fluorescein tagged peptide substrate). Particulars: ATP 500 micromolar, kinase 6 nM, pH 7.4. In kind it is biochemical. On the procedure: The enzymatic activity of Wild Type HPK1 (MAP4K1) Kinase was measured in the presence or absence of an inhibitor compound of the present disclosure by preparation of a reaction mixture containing a fluorescein tagged peptide (2 micromolar final concentration), ATP (Adenosine Triphosphate, 500 micromolar final concentration) and Wild Type kinase (6 nM final concentration) in a buffer system comprising 50 mM HEPES (Buffer), 3 mM MgCl2, 5% w/v Trehalose, 0.01% Brij 35 (Detergent), 0.1% Pluronic F127 (Surfactant), 0.1 mM EDTA (Ethylenediaminetetraacetic acid), 0.1 mM EGTA (ethylene glycol-bis(β-aminoethyl ether)-N,N,N′,N′-tetraacetic acid) and 1 mM DTT (Dithiothreitol) and at a pH of 7.4. The reactions were quenched by the addition of EDTA to a final concentration of 25 mM. A Caliper EZ reader was used to measure the extent of substrate to product conversion.
The peptide substrate used in the HPK1 assay was designed based on the amino acid sequence surrounding serine residue 376 of SLP76-Lymphocyte cytosolic protein 2 (a known intracellular substrate of HPK1). This sequence SSFPQSAsLPPYFSQ was modified as follows for use in Caliper assays of HPK1: the serine residues on either side of serine 376 were replaced with alanine, three lysine residues were added at the […] and a fluorescein tag (FAM) was attached to the […] to produce the sequence, FAM-FPQAAsLPPYFAKKK.
The term IC50 denotes the concentration needed to halve the response being measured. Higher therefore signals weaker potency. The compound `COc1cc2c(cc1Nc1ncc(Cl)c(Nc3ccccc3P(C)(C)=O)n1)CN(C)C2` [Example I-1, (2-((5-Chloro-2-((6-methoxy-2-methylisoindolin-5-yl)amino)pyrimidin-4-yl)amino)phenyl)dimethylphosphine oxide] displayed an IC50 of 0.01 to 0.1 µM.
`COc1cc2c(cc1Nc1ncc(Cl)c(Nc3ccccc3P(C)(C)=O)n1)CN(C)CC2` [Example I-2, (2-((5-chloro-2-((6-methoxy-2-methyl-1,2,3,4-tetrahydroisoquinolin-7-yl)amino)pyrimidin-4-yl)amino)phenyl)dimethylphosphine oxide] displayed a 50% inhibitory concentration (IC50) below 0.005 µM.
For `COc1cc2c(cc1Nc1ncc(Cl)c(Nc3ccccc3P(C)(C)=O)n1)CCN(C)CC2` [Example I-3, (2-((5-chloro-2-((8-methoxy-3-methyl-2,3,4,5-tetrahydro-1H-benzo[d]azepin-7-yl)amino)pyrimidin-4-yl)amino)phenyl)dimethylphosphine oxide], the 50% inhibitory concentration (IC50) lay within 0.01 to 0.1 µM.
`COc1cc2c(cc1Nc1ncc(Cl)c(Nc3ccccc3P(C)(C)=O)n1)CCCN(C)C2` [Example I-4, (2-((5-chloro-2-((8-methoxy-2-methyl-2,3,4,5-tetrahydro-1H-benzo[c]azepin-7-yl)amino)pyrimidin-4-yl)amino)phenyl)dimethylphosphine oxide] displayed a half-inhibitory concentration (IC50) of 0.01 to 0.1 µM.
In turn, `CN1CCc2cc(F)c(Nc3ncc(Cl)c(Nc4ccccc4P(C)(C)=O)n3)cc2C1` [Example I-5, (2-((5-chloro-2-((6-fluoro-2-methyl-1,2,3,4-tetrahydroisoquinolin-7-yl)amino)pyrimidin-4-yl)amino)phenyl)dimethylphosphine oxide] came in with an IC50 below 0.005 µM.
Then `CN1CCc2cc(Cl)c(Nc3ncc(Cl)c(Nc4ccccc4P(C)(C)=O)n3)cc2C1` [Example I-6, 5-chloro-N^2-(6-chloro-2-methyl-3,4-dihydro-1H-isoquinolin-7-yl)-N^4-(2-dimethylphosphorylphenyl)pyrimidine-2,4-diamine], with below 0.005 µM; and `CCc1cc2c(cc1Nc1ncc(Cl)c(Nc3ccccc3P(C)(C)=O)n1)CN(C)CC2` [Example I-7, 5-chloro-N^4-(2-dimethylphosphorylphenyl)-N^2-(6-ethyl-2-methyl-3,4-dihydro-1H-isoquinolin-7-yl)pyrimidine-2,4-diamine], with 0.005 to 0.01 µM.
As to `C=Cc1cc2c(cc1Nc1ncc(Cl)c(Nc3ccccc3P(C)(C)=O)n1)CN(C)CC2` [Example I-8, 5-chloro-N^4-(2-dimethylphosphorylphenyl)-N^2-(2-methyl-6-vinyl-3,4-dihydro-1H-isoquinolin-7-yl)pyrimidine-2,4-diamine], the IC50 fell in the range of 0.005 to 0.01 µM.
Then `COc1c(Nc2ncc(Cl)c(Nc3ccccc3P(C)(C)=O)n2)cc2c(c1N)CC1CCCCN1C2` (stereo not drawn) [Example I-9, N^8-[5-chloro-4-(2-dimethylphosphorylanilino)pyrimidin-2-yl]-9-methoxy-2,3,4,6,11,11a-hexahydro-1H-benzo[b]quinolizine-8,10-diamine], with 0.01 to 0.1 µM; and `COc1cc2c(cc1Nc1ncc(Cl)c(Nc3ccccc3P(C)(C)=O)n1)CN1CCCCC1C2` (stereo not drawn) [Example I-10, 5-chloro-N^4-(2-dimethylphosphorylphenyl)N^2-(9-methoxy-2,3,4,6,11,11a-hexahydro-1H-benzo[b]quinolizin-8-yl)pyrimidine-2,4-diamine], with below 0.005 µM.
Next, `COc1cc2c(cc1Nc1ncc(Cl)c(Nc3ccccc3P(C)(C)=O)n1)CN(C(C)C)CC2` [Example I-11, (2-((5-chloro-2-((2-isopropyl-6-methoxy-1,2,3,4-tetrahydroisoquinolin-7-yl)amino)pyrimidin-4-yl)amino)phenyl)dimethylphosphine oxide]: below 0.005 µM; `CCN1CCc2cc(OC)c(Nc3ncc(Cl)c(Nc4ccccc4P(C)(C)=O)n3)cc2C1` [Example I-12, (2-((5-chloro-2-((2-ethyl-6-methoxy-1,2,3,4-tetrahydroisoquinolin-7-yl)amino)pyrimidin-4-yl)amino)phenyl)dimethylphoshine oxide]: below 0.005 µM; `COc1cc2c(cc1Nc1ncc(Cl)c(Nc3ccccc3P(C)(C)=O)n1)[C@H](N(C)C)CCC2` [Example I-13, (R)-(2-((5-chloro-2-((8-(dimethylamino)-3-methoxy-5,6,7,8-tetrahydronaphthalen-2-yl)amino)pyrimidin-4-yl)amino)phenyl)dimethylphosphine oxide]: 0.01 to 0.1 µM.
Compound `COc1cc2c(cc1Nc1ncc(Cl)c(Nc3ccccc3P(C)(C)=O)n1)[C@H](N(C)C)CC2` [Example I-14, (R)-(2-((5-chloro-2-((3-(dimethylamino)-6-methoxy-2,3-dihydro-1H-inden-5-yl)amino)pyrimidin-4-yl)amino)phenyl)dimethylphosphine oxide] showed a half-maximal inhibitory concentration (IC50) of 0.005 to 0.01 µM.
Compound `COc1cc2c(cc1Nc1ncc(Cl)c(Nc3ccccc3P(C)(C)=O)n1)[C@@H](N(C)C)CCC2` [Example I-15, (S)-(2-((5-chloro-2-((8-(dimethylamino)-3-methoxy-5,6,7,8-tetrahydronaphthalen-2-yl)amino)pyrimidin-4-yl)amino)phenyl)dimethylphosphine oxide] came in with an IC50 of 0.1 to 10 µM.
`COc1cc2c(cc1Nc1ncc(Cl)c(Nc3ccccc3P(C)(C)=O)n1)[C@@H](N(C)C)CC2` [Example I-16, (S)-(2-((5-chloro-2-((3-(dimethylamino)-6-methoxy-2,3-dihydro-1H-inden-5-yl)amino)pyrimidin-4-yl)amino)phenyl)dimethylphosphine oxide] came in with a half-inhibitory concentration (IC50) of 0.1 to 10 µM.
Take `COc1cc2c(cc1Nc1ncc(Cl)c(Nc3ccccc3P(C)(C)=O)n1)CC(N(C)C)C2` (stereo not drawn) [Example I-17, (2-((5-chloro-2-((2-(dimethylamino)-6-methoxy-2,3-dihydro-1H-inden-5-yl)amino)pyrimidin-4-yl)amino)phenyl)dimethylphosphine oxide]: the IC50 is 0.01 to 0.1 µM.
With `COc1cc2c(cc1Nc1ncc(Cl)c(Nc3ccccc3P(C)(C)=O)n1)CCN(C)C2` [Example I-18, (2-((5-chloro-2-((7-methoxy-2-methyl-1,2,3,4-tetrahydroisoquinolin-6-yl)amino)pyrimidin-4-yl)amino)phenyl)dimethylphosphine oxide], the half-maximal inhibitory concentration (IC50) was below 0.005 µM.
As to `CCP(=O)(CC)c1ccccc1Nc1nc(Nc2cc3c(cc2OC)CCN(C)C3)ncc1Cl` [Example I-19, (2-((5-chloro-2-((6-methoxy-2-methyl-1,2,3,4-tetrahydroisoquinolin-7-yl)amino)pyrimidin-4-yl)amino)phenyl)diethylphosphine oxide], the half-maximal inhibitory concentration (IC50) was below 0.005 µM.
As for `CCP(=O)(CC)c1ccccc1Nc1nc(Nc2cc3c(cc2Cl)CCN(C)C3)ncc1Cl` [Example I-20, (2-((5-chloro-2-((6-chloro-2-methyl-1,2,3,4-tetrahydroisoquinolin-7-yl)amino)pyrimidin-4-yl)amino)phenyl)diethylphosphine oxide], the IC50 was below 0.005 µM.
As to `COc1cc2c(cc1Nc1ncc(Br)c(Nc3ccccc3P(C)(C)=O)n1)CN(C)CC2` [Example I-22, (2-((5-bromo-2-((6-methoxy-2-methyl-1,2,3,4-tetrahydroisoquinolin-7-yl)amino)pyrimidin-4-yl)amino)phenyl)dimethylphosphine oxide], the concentration for half-maximal inhibition (IC50) was below 0.005 µM.
Compound `COc1cc2c(cc1Nc1ncc(OC)c(Nc3ccccc3P(C)(C)=O)n1)CN(C)CC2` [Example I-23, (2-((5-methoxy-2-((6-methoxy-2-methyl-1,2,3,4-tetrahydroisoquinolin-7-yl)amino)pyrimidin-4-yl)amino)phenyl)dimethylphosphine oxide] displayed an IC50 of 0.005 to 0.01 µM.
For the compound `CN1CCc2c(Br)cc(Nc3ncc(Cl)c(Nc4ccccc4P(C)(C)=O)n3)cc2C1` [Example I-24, (2-((2-((5-bromo-2-methyl-1,2,3,4-tetrahydroisoquinolin-7-yl)amino)-5-chloropyrimidin-4-yl)amino)phenyl)dimethylphosphine oxide], the half-inhibitory concentration (IC50) is below 0.005 µM.
Next, `COc1cc2c(cc1Nc1nccc(Nc3ccccc3P(C)(C)=O)n1)CN(C)CC2` [Example I-25, (2-((2-((6-methoxy-2-methyl-1,2,3,4-tetrahydroisoquinolin-7-yl)amino)pyrimidin-4-yl)amino)phenyl)dimethylphosphine oxide]: 0.1 to 10 µM; `COc1cc2c(cc1Nc1ncc(F)c(Nc3ccccc3P(C)(C)=O)n1)CN(C)CC2` [Example I-26, (2-((5-fluoro-2-((6-methoxy-2-methyl-1,2,3,4-tetrahydroisoquinolin-7-yl)amino)pyrimidin-4-yl)amino)phenyl)dimethylphosphine oxide]: 0.01 to 0.1 µM.
Take `COc1cc2c(cc1Nc1ncc(C(F)(F)F)c(Nc3ccccc3P(C)(C)=O)n1)CN(C)CC2` [Example I-27, (2-((2-((6-methoxy-2-methyl-1,2,3,4-tetrahydroisoquinolin-7-yl)amino)-5-(trifluoromethyl)pyrimidin-4-yl)amino)phenyl)dimethylphosphine oxide]: the 50% inhibitory concentration (IC50) was 0.005 to 0.01 µM.
Take `COc1cc2c(cc1Nc1ncc(Cl)c(Nc3ccccc3P(C)(C)=O)n1)C(C)(C)N(C)CC2` [Example I-28, (2-((5-chloro-2-((6-methoxy-1,1,2-trimethyl-1,2,3,4-tetrahydroisoquinolin-7-yl)amino)pyrimidin-4-yl)amino)phenyl)dimethylphosphine oxide]: the 50% inhibitory concentration (IC50) was 0.01 to 0.1 µM.
